Test results as given in the NIST ThermoML archive (doi:10.1021/je9010568).
Numbers after ± are expanded uncertainties.

Assays:
[1] = Liquid
[2] = φn = volume fraction of the nth substance listed; details: Liquid, φ1 = 0.55

CC(O)CO (centres undefined) [1,2-propanediol]
[1]
Details | specific volume [m3/kg]
273.15 K, 100 kPa, Vibrating tube method | 0.0009519 ± 2.4e-07
274.15 K, 100 kPa, Vibrating tube method | 0.0009525 ± 2.4e-07
275.15 K, 100 kPa, Vibrating tube method | 0.0009532 ± 2.4e-07
276.15 K, 100 kPa, Vibrating tube method | 0.0009538 ± 2.4e-07
277.15 K, 100 kPa, Vibrating tube method | 0.0009544 ± 2.4e-07
278.15 K, 100 kPa, Vibrating tube method | 0.0009551 ± 2.4e-07
279.15 K, 100 kPa, Vibrating tube method | 0.0009557 ± 2.4e-07
280.15 K, 100 kPa, Vibrating tube method | 0.0009563 ± 2.4e-07
281.15 K, 100 kPa, Vibrating tube method | 0.000957 ± 2.4e-07
282.16 K, 100 kPa, Vibrating tube method | 0.0009576 ± 2.4e-07
283.16 K, 100 kPa, Vibrating tube method | 0.0009583 ± 2.4e-07
284.16 K, 100 kPa, Vibrating tube method | 0.0009589 ± 2.4e-07
285.16 K, 100 kPa, Vibrating tube method | 0.0009596 ± 2.4e-07
286.16 K, 100 kPa, Vibrating tube method | 0.0009602 ± 2.4e-07
287.16 K, 100 kPa, Vibrating tube method | 0.0009609 ± 2.4e-07
287.78 K, 298200 kPa, Bellows volumetry | 0.0008796 ± 1.4e-06
287.98 K, 348900 kPa, Bellows volumetry | 0.0008706 ± 1.8e-06
288.05 K, 100 kPa, Vibrating tube method | 0.0009615 ± 2.4e-07
288.05 K, 49200 kPa, Bellows volumetry | 0.0009434 ± 4.3e-07
288.1 K, 299700 kPa, Bellows volumetry | 0.0008829 ± 1.3e-06
288.11 K, 148700 kPa, Bellows volumetry | 0.0009148 ± 1.1e-06
288.12 K, 198400 kPa, Bellows volumetry | 0.0009035 ± 1.4e-06
288.12 K, 248700 kPa, Bellows volumetry | 0.0008932 ± 2.3e-06
288.14 K, 99900 kPa, Bellows volumetry | 0.0009277 ± 8.3e-06
288.15 K, 99300 kPa, Bellows volumetry | 0.000926 ± 3.8e-06
288.16 K, 100 kPa, Vibrating tube method | 0.0009616 ± 2.4e-07
288.17 K, 49000 kPa, Bellows volumetry | 0.0009425 ± 2.7e-07
288.17 K, 349200 kPa, Bellows volumetry | 0.0008746 ± 1.3e-06
288.2 K, 249300 kPa, Bellows volumetry | 0.0008891 ± 7.1e-07
288.21 K, 148200 kPa, Bellows volumetry | 0.0009125 ± 4.4e-07
288.22 K, 99800 kPa, Bellows volumetry | 0.0009279 ± 1.3e-06
288.24 K, 199500 kPa, Bellows volumetry | 0.0009 ± 5.9e-07
288.28 K, 149900 kPa, Bellows volumetry | 0.0009146 ± 1.6e-06
288.29 K, 250100 kPa, Bellows volumetry | 0.0008927 ± 2e-06
288.31 K, 100 kPa, Vibrating tube method | 0.0009617 ± 2.4e-07
288.31 K, 199600 kPa, Bellows volumetry | 0.0009031 ± 2e-06
288.31 K, 299900 kPa, Bellows volumetry | 0.0008834 ± 9.9e-07
288.32 K, 349100 kPa, Bellows volumetry | 0.000875 ± 1.3e-06
288.34 K, 100 kPa, Vibrating tube method | 0.0009617 ± 2.4e-07
288.38 K, 48800 kPa, Bellows volumetry | 0.0009437 ± 3.6e-07
289.16 K, 100 kPa, Vibrating tube method | 0.0009622 ± 2.4e-07
290.15 K, 100 kPa, Vibrating tube method | 0.0009629 ± 2.4e-07
291.15 K, 100 kPa, Vibrating tube method | 0.0009636 ± 2.4e-07
292.15 K, 100 kPa, Vibrating tube method | 0.0009643 ± 2.4e-07
293.15 K, 100 kPa, Vibrating tube method | 0.0009649 ± 2.4e-07
294.15 K, 100 kPa, Vibrating tube method | 0.0009656 ± 2.4e-07
295.15 K, 100 kPa, Vibrating tube method | 0.0009663 ± 2.4e-07
296.16 K, 100 kPa, Vibrating tube method | 0.000967 ± 2.4e-07
297.16 K, 100 kPa, Vibrating tube method | 0.0009677 ± 2.4e-07
298.16 K, 100 kPa, Vibrating tube method | 0.0009684 ± 2.4e-07
299.16 K, 100 kPa, Vibrating tube method | 0.0009691 ± 2.4e-07
300.16 K, 100 kPa, Vibrating tube method | 0.0009698 ± 2.4e-07
301.16 K, 100 kPa, Vibrating tube method | 0.0009705 ± 2.4e-07
302.16 K, 100 kPa, Vibrating tube method | 0.0009712 ± 2.4e-07
303.16 K, 100 kPa, Vibrating tube method | 0.0009719 ± 2.4e-07
304.15 K, 100 kPa, Vibrating tube method | 0.0009726 ± 2.4e-07
305.15 K, 100 kPa, Vibrating tube method | 0.0009733 ± 2.4e-07
306.15 K, 100 kPa, Vibrating tube method | 0.000974 ± 2.4e-07
307.15 K, 100 kPa, Vibrating tube method | 0.0009747 ± 2.4e-07
308.15 K, 100 kPa, Vibrating tube method | 0.0009754 ± 2.4e-07
309.15 K, 100 kPa, Vibrating tube method | 0.0009761 ± 2.4e-07
310.15 K, 100 kPa, Vibrating tube method | 0.0009769 ± 2.4e-07
311.15 K, 100 kPa, Vibrating tube method | 0.0009776 ± 2.4e-07
312.15 K, 100 kPa, Vibrating tube method | 0.0009783 ± 2.4e-07
313.15 K, 100 kPa, Vibrating tube method | 0.000979 ± 2.4e-07

CC(O)CO (centres undefined) [1,2-propanediol] + O
[2]
Details | specific volume [m3/kg]
273.15 K, 100 kPa, Vibrating tube method | 0.0009499 ± 2.3e-07
274.15 K, 100 kPa, Vibrating tube method | 0.0009505 ± 2.3e-07
275.15 K, 100 kPa, Vibrating tube method | 0.000951 ± 2.3e-07
276.15 K, 100 kPa, Vibrating tube method | 0.0009516 ± 2.3e-07
277.15 K, 100 kPa, Vibrating tube method | 0.0009521 ± 2.3e-07
278.15 K, 100 kPa, Vibrating tube method | 0.0009527 ± 2.3e-07
279.15 K, 100 kPa, Vibrating tube method | 0.0009533 ± 2.3e-07
280.15 K, 100 kPa, Vibrating tube method | 0.0009539 ± 2.3e-07
281.15 K, 100 kPa, Vibrating tube method | 0.0009544 ± 2.3e-07
282.15 K, 100 kPa, Vibrating tube method | 0.000955 ± 2.3e-07
283.15 K, 100 kPa, Vibrating tube method | 0.0009556 ± 2.3e-07
284.15 K, 100 kPa, Vibrating tube method | 0.0009562 ± 2.3e-07
285.16 K, 100 kPa, Vibrating tube method | 0.0009568 ± 2.3e-07
286.16 K, 100 kPa, Vibrating tube method | 0.0009574 ± 2.3e-07
287.16 K, 100 kPa, Vibrating tube method | 0.0009579 ± 2.3e-07
287.99 K, 198800 kPa, Bellows volumetry | 0.0009078 ± 2.6e-07
288 K, 100100 kPa, Bellows volumetry | 0.0009305 ± 2.7e-07
288.03 K, 49500 kPa, Bellows volumetry | 0.0009439 ± 2.7e-07
288.04 K, 148900 kPa, Bellows volumetry | 0.0009188 ± 2.6e-07
288.11 K, 248600 kPa, Bellows volumetry | 0.0008977 ± 2.6e-07
288.11 K, 298400 kPa, Bellows volumetry | 0.0008885 ± 2.6e-07
288.12 K, 49600 kPa, Bellows volumetry | 0.0009432 ± 2.7e-07
288.12 K, 198700 kPa, Bellows volumetry | 0.000907 ± 2.6e-07
288.12 K, 348400 kPa, Bellows volumetry | 0.0008794 ± 2.6e-07
288.13 K, 100 kPa, Vibrating tube method | 0.0009585 ± 2.3e-07
288.13 K, 98100 kPa, Bellows volumetry | 0.0009301 ± 2.7e-07
288.13 K, 148600 kPa, Bellows volumetry | 0.0009182 ± 2.6e-07
288.16 K, 100 kPa, Vibrating tube method | 0.0009585 ± 2.3e-07
288.22 K, 249300 kPa, Bellows volumetry | 0.000897 ± 2.6e-07
288.3 K, 100900 kPa, Bellows volumetry | 0.0009295 ± 2.7e-07
288.31 K, 149300 kPa, Bellows volumetry | 0.0009178 ± 2.6e-07
288.31 K, 201100 kPa, Bellows volumetry | 0.0009066 ± 2.6e-07
288.31 K, 300500 kPa, Bellows volumetry | 0.0008875 ± 2.6e-07
288.31 K, 348700 kPa, Bellows volumetry | 0.0008793 ± 2.6e-07
288.32 K, 100 kPa, Vibrating tube method | 0.0009586 ± 2.3e-07
288.33 K, 49800 kPa, Bellows volumetry | 0.0009434 ± 2.7e-07
288.33 K, 249400 kPa, Bellows volumetry | 0.0008969 ± 2.6e-07
288.35 K, 350000 kPa, Bellows volumetry | 0.0008796 ± 2.6e-07
288.36 K, 299200 kPa, Bellows volumetry | 0.0008882 ± 2.6e-07
289.16 K, 100 kPa, Vibrating tube method | 0.0009591 ± 2.3e-07
290.16 K, 100 kPa, Vibrating tube method | 0.0009597 ± 2.3e-07
291.15 K, 100 kPa, Vibrating tube method | 0.0009603 ± 2.3e-07
292.15 K, 100 kPa, Vibrating tube method | 0.000961 ± 2.3e-07
293.15 K, 100 kPa, Vibrating tube method | 0.0009616 ± 2.3e-07
294.15 K, 100 kPa, Vibrating tube method | 0.0009622 ± 2.3e-07
295.15 K, 100 kPa, Vibrating tube method | 0.0009628 ± 2.3e-07
296.16 K, 100 kPa, Vibrating tube method | 0.0009634 ± 2.3e-07
297.16 K, 100 kPa, Vibrating tube method | 0.0009641 ± 2.3e-07
298.16 K, 100 kPa, Vibrating tube method | 0.0009647 ± 2.3e-07
299.16 K, 100 kPa, Vibrating tube method | 0.0009653 ± 2.3e-07
300.16 K, 100 kPa, Vibrating tube method | 0.000966 ± 2.3e-07
301.16 K, 100 kPa, Vibrating tube method | 0.0009666 ± 2.3e-07
302.16 K, 100 kPa, Vibrating tube method | 0.0009673 ± 2.3e-07
303.16 K, 100 kPa, Vibrating tube method | 0.0009679 ± 2.3e-07
304.16 K, 100 kPa, Vibrating tube method | 0.0009685 ± 2.3e-07
305.16 K, 100 kPa, Vibrating tube method | 0.0009692 ± 2.3e-07
306.16 K, 100 kPa, Vibrating tube method | 0.0009699 ± 2.3e-07
307.15 K, 100 kPa, Vibrating tube method | 0.0009705 ± 2.3e-07
308.15 K, 100 kPa, Vibrating tube method | 0.0009712 ± 2.3e-07
309.15 K, 100 kPa, Vibrating tube method | 0.0009719 ± 2.3e-07
310.15 K, 100 kPa, Vibrating tube method | 0.0009725 ± 2.3e-07
311.15 K, 100 kPa, Vibrating tube method | 0.0009732 ± 2.3e-07
312.15 K, 100 kPa, Vibrating tube method | 0.0009739 ± 2.3e-07
313.15 K, 100 kPa, Vibrating tube method | 0.0009746 ± 2.3e-07
